Data: patent EP2179732A1, “PHARMACEUTICAL COMPOSITION COMBINING AN ENZYME HMG-COA REDUCTASE INHIBITING AGENT AND A GASTROINTESTINAL LIPASE ENZYME INHIBITING AGENT” (Espinosa Abdala, Leopoldo de Jesús, priority 2007, dated 2008)
Marks after values point to notes of the source that are not given here.

Experiments:
[1] = dose-response study; cited from earlier work
[2] = tested on: obese patients with hypercholesterolemia and hypertriglyceridemia; details: human, in vivo
Description: (§1) Methods. Selected patients were obese with a Body Mass Index (IMC) >30 Kg/m^2; with border (Total cholesterol 200-240 mg./dL.) or severe (Total cholesterol ≥ 240 mg./dL.) hypercholesterolemia; with hypertriglyceridemia (≥ 150 mg./dL.); normal pressure patients (systolic pressure <140 mm Hg and diastolic pressure < 90 mm Hg).
(§2) Patients were >50 years old. Patients were randomized for receiving in Group 1: Orlistat 1 capsule (120 mg.) in main meal.
(§3) Compliance with treatment was assessed by counting capsules and with follow-up visits every 3 months. Total cholesterol, LDL cholesterol, HDL Cholesterol, Triglycerides in serum and blood pressure during baseline visit were assessed, and at 6 months and 12 months of treatment. Waist index was assessed.

[3] = tested on: obese patients with hypercholesterolemia and hypertriglyceridemia; assay: Clinical comparative study of Orlistat, Atorvastatin and combination: lipid profile; format: in vivo; details: for C-HDL Baseline change at 1 year / C-LDL Baseline change at 1 year / CT Baseline change at 1 year / TG Baseline change at 1 year: 1 Year versus baseline; for C-HDL / C-LDL / CT (Total Cholesterol) / TG (Triglycerides): average (SD)
Description: as §1, §2, §3

[4] = tested on: obese patients with hypercholesterolemia and hypertriglyceridemia; assay: Clinical comparative study: body weight (body mass index, waist circumference reduction, weight loss); format: in vivo
Description: as §1, §2, §3

[5] = tested on: obese patients with hypercholesterolemia and hypertriglyceridemia; assay: Clinical comparative study: blood pressure; format: in vivo
Description: as §1, §2, §3

[6] = dosage of 120 mg once a day; cited from earlier work
[7] = cited from earlier work
plasma proteins = details: in vitro; lipoproteins and albumin main attachment proteins; cited from earlier work

| Structure (SMILES) | C-HDL Baseline change at 1 year [3] | C-LDL Baseline change at 1 year [3] | CT Baseline change at 1 year [3] | TG Baseline change at 1 year [3] | C-HDL ([3]; 1 year of treatment) | C-LDL ([3]; 1 year of treatment) | CT (Total Cholesterol) ([3]; 1 year of treatment) | TG (Triglycerides) ([3]; 1 year of treatment) | C-HDL ([3]; 6 months of treatment) | C-LDL ([3]; 6 months of treatment) | CT (Total Cholesterol) ([3]; 6 months of treatment) | TG (Triglycerides) ([3]; 6 months of treatment) | IMC Baseline changes ([4]; 1 Year versus baseline) | PP Baseline changes ([4]; 1 Year versus baseline) | RCC Baseline changes ([4]; 1 Year versus baseline) | PP (Weight loss) ([4]; 1 year) | RCC (Waist circumference reduction) ([4]; 1 year) | PP (Weight loss) ([4]; 6 Months) | RCC (Waist circumference reduction) ([4]; 6 Months) | IMC Baseline changes ([4]; 6 Months versus baseline) | further results |
| --- | --- | --- | --- | --- | --- | --- | --- | --- | --- | --- | --- | --- | --- | --- | --- | --- | --- | --- | --- | --- | --- |
| CC(C)c1c(C(=O)Nc2ccccc2)c(-c2ccccc2)c(-c2ccc(F)cc2)n1CC[C@@H](O)C[C@@H](O)CC(=O)O [Atorvastatin] | 12.3** % | -33.0** % | -27.0** % | -25.0* % | 46 (5) mg./dL. | 104 (23) mg./dL. | 184 (23) mg./dL. | 125 (28) mg./dL. | 44 (5) mg./dL. | 151 (22)* mg./dL. | 191 (21)* mg./dL. | 126 (29) mg./dL. | -4.1* % | -4.6* % | -3.7* % | -7.3 (1.2) | -3.1 (1.1) cm. | -3.7 (1.1) | -1.5 (0.7) cm. | -2.3% | reduce LDL cholesterol [1]: 41-61%; reduce apolipoprotein B [1]: 34-50%; reduce total cholesterol [1]: 30-46%; reduce triglycerides [1]: 14-33%; alterations as to serum transaminases or in creatinphosphokinase activity [2]: did not show alterations; PP Baseline changes ([4]; 6 Months versus baseline): -3.7%; RCC Baseline changes ([4]; 6 Months versus baseline): -1.5%; Diastolic Baseline changes ([5]; 1 Year versus baseline): -7.0* %; Systolic Baseline changes ([5]; 1 Year versus baseline): -6.0* %; Diastolic blood pressure [PAD] ([5]; 1 year): 83 (3) mm. Hg; Systolic blood pressure [PAS] ([5]; 1 year): 127 (4) mm. Hg; Diastolic blood pressure [PAD] ([5]; 6 Months): 85 (4) mm. Hg; Systolic blood pressure [PAS] ([5]; 6 Months): 130 (4) mm. Hg; Diastolic Baseline changes ([5]; 6 Months versus baseline): -5.0%; Systolic Baseline changes ([5]; 6 Months versus baseline): -3.0% |
| CCCCCCCCCCC[C@@H](C[C@@H]1OC(=O)[C@H]1CCCCCC)OC(=O)[C@H](CC(C)C)NC=O [Orlistat] | 4.8% | -17.0* % | -13.0* % | -30-3** % | 45 (6) mg./dL. | 152 (23) mg./dL. | 211 (25) mg./dL. | 100 (22) mg./dL. | 44 (5) mg./dL. | 163 (21) mg./dL. | 232 (22) mg./dL. | 120 (24) mg./dL. | -6.2** % | -4.6** % | -4.6* % | -6.6 (1.5) | -4.1 (1.1) cm. | -4.0 (1.2) | -2.1 (0.7) cm. | -3.2* % | maximum inhibition of fatty absorption [6]: 30%; intact Orlistat concentrations ([7]; at 8 hours after oral administration, not detectable): < 5 ng/mL; two main metabolites M1 and M3 as share of total plasma concentration ([7]; of the minimal systemically absorbed fraction of the dose): about 42%; adverse events [2]: Two patients from Group 1 showed adverse gastrointestinal events (fecal urgency); attached to plasma proteins (plasma proteins): > 99%; IMC (Body Mass Index) ([4]; 1 year): 27.3 (1.3) Kg./M^2; IMC (Body Mass Index) ([4]; 6 Months): 30.3 (1.4) Kg./M^2; PP Baseline changes ([4]; 6 Months versus baseline): -4.* %; RCC Baseline changes ([4]; 6 Months versus baseline): -2.1* %; Diastolic Baseline changes ([5]; 1 Year versus baseline): -8.0* %; Systolic Baseline changes ([5]; 1 Year versus baseline): -16.0* %; Diastolic blood pressure [PAD] ([5]; 1 year): 82 (3) mm. Hg; Systolic blood pressure [PAS] ([5]; 1 year): 128 (3) mm. Hg; Diastolic blood pressure [PAD] ([5]; 6 Months): 82 (3) mm. Hg; Systolic blood pressure [PAS] ([5]; 6 Months): 130 (3) mm. Hg; Diastolic Baseline changes ([5]; 6 Months versus baseline): -8.0%; Systolic Baseline changes ([5]; 6 Months versus baseline): -6.0% |
